Laboratory results as given in ChEMBL document CHEMBL1165957, “Alkaloids from the bark of Guatteria hispida and their evaluation as antioxidant and antimicrobial agents” (2010).
Values after ≈ are worked out from the molar mass of the structure shown. Active and inactive are the calls of the source. The calls are words filed in the database; no cut-off is given here.

Tests used:
Format in all cases: functional
[1] = Antioxidant activity assessed as trolox equivalents of peroxyl radical scavenging activity by ORAC assay; design: unit not given here
Staphylococcus aureus [2] = experiment: Antimicrobial activity against Staphylococcus aureus 7+ penicillinase positive + by broth dilution method
Staphylococcus aureus [3] = experiment: Antimicrobial activity against Staphylococcus aureus ATCC 14458 by broth dilution method
[4] = system: Staphylococcus epidermidis; experiment: Antimicrobial activity against Staphylococcus epidermidis 6ep by broth dilution method
Pseudomonas aeruginosa = experiment: Antimicrobial activity against Pseudomonas aeruginosa ATCC 27853 by broth dilution method
Kocuria rhizophila = experiment: Antimicrobial activity against Kocuria rhizophila ATCC 9341 by broth dilution method
Escherichia coli = experiment: Antimicrobial activity against Escherichia coli ATCC 10538 by broth dilution method
Staphylococcus aureus [5] = experiment: Antimicrobial activity against Staphylococcus aureus 8- penicillinase negative by broth dilution method
Candida albicans = experiment: Antimicrobial activity against Candida albicans ATCC 10231 by broth dilution method
Nakaseomyces glabratus = experiment: Antimicrobial activity against Candida glabrata ATCC 30070 by broth dilution method
Candida dubliniensis [6] = experiment: Antimicrobial activity against Candida dubliniensis ATCC 778157 by broth dilution method
Candida tropicalis = experiment: Antimicrobial activity against Candida tropicalis CT by broth dilution method
Candida parapsilosis = experiment: Antimicrobial activity against Candida parapsilosis ATCC 22019 by broth dilution method
Candida dubliniensis [7] = experiment: Antimicrobial activity against Candida dubliniensis ATCC 777 by broth dilution method

Structure (SMILES)	Activity [1]	MIC (Staphylococcus aureus [2])	MIC (Staphylococcus aureus [3])	MIC [4]	MIC (Pseudomonas aeruginosa)	MIC (Kocuria rhizophila)	MIC (Escherichia coli)	MIC (Staphylococcus aureus [5])	MIC (Candida albicans)	MIC (Nakaseomyces glabratus)	MIC (Candida dubliniensis [6])	MIC (Candida tropicalis)	MIC (Candida dubliniensis [7])	other results
COc1cc2c(cc1O)C[C@H]1c3cc(O)c(OC)cc3CCN1C2	1.4													
COc1cc2c(cc1O)C[C@H]1c3cc(OC)c(O)cc3CCN1C2	1.67													
COc1cc2c3c(c1OC)-c1ccccc1CC3NCC2 (configuration not stated)	0.27													
COc1ccc2c(c1)C(=O)c1nccc3c(O)c(OC)c(OC)c-2c13	1.62													
O=C(O)/C=C/c1ccc(O)c(O)c1	2.95													
O=c1c(O)c(-c2ccc(O)c(O)c2)oc2cc(O)cc(O)c12	5.62													
O=c1c(O[C@@H]2O[C@H](CO)[C@@H](O)[C@H](O)[C@H]2O)c(-c2ccc(O)c(O)c2)oc2cc(O)cc(O)c12	5.25													
O=C(N[C@H](CO)[C@H](O)c1ccc([N+](=O)[O-])cc1)C(Cl)Cl [CHLORAMPHENICOL]		25 µg/mL	25 µg/mL (≈ 77.4 µM)	50 µg/mL (≈ 155 µM)	850 µg/mL (≈ 2630 µM)	50 µg/mL (≈ 155 µM)	50 µg/mL (≈ 155 µM)	25 µg/mL (≈ 77.4 µM)						
COc1c(OC)c2c3c(nccc3c1OC)C(=O)c1ccccc1-2 [HOMOMOSCHATOLINE]	0.5	inactive	inactive	25 µg/mL (≈ 77.8 µM)	inactive	inactive	inactive	inactive	inactive	inactive	25 µg/mL (≈ 77.8 µM)	inactive	12.5 µg/mL (≈ 38.9 µM)	MIC (Candida parapsilosis): inactive
CC(=O)N1CCN(c2ccc(OCC3COC(Cn4ccnc4)(c4ccc(Cl)cc4Cl)O3)cc2)CC1 (configuration not stated) [KETOCONAZOLE]									12.5 µg/mL (≈ 23.5 µM)	12.5 µg/mL (≈ 23.5 µM)	12.5 µg/mL (≈ 23.5 µM)	12.5 µg/mL (≈ 23.5 µM)	12.5 µg/mL (≈ 23.5 µM)	MIC (Candida parapsilosis; Lodderomyces parapsilosis): 12.5 µg/mL (≈ 23.5 µM)
O=C1c2ccccc2-c2c3c(cc4ccnc1c24)OCO3 [LIRIODENINE]	0.3	inactive	inactive	50 µg/mL (≈ 182 µM)	inactive	inactive	inactive	inactive	inactive	inactive	100 µg/mL (≈ 363 µM)	inactive	50 µg/mL (≈ 182 µM)	MIC (Candida parapsilosis): inactive
COc1cc2ccnc3c2c(c1OC)-c1ccccc1C3=O [LYSICAMINE]	0.86	inactive	inactive	50 µg/mL (≈ 172 µM)	inactive	inactive	inactive	inactive	inactive	inactive	100 µg/mL (≈ 343 µM)	inactive	100 µg/mL (≈ 343 µM)	MIC (Candida parapsilosis): inactive
